Reference: US11046699B2, “Pyrazolo-pyrimidin-amino-cycloalkyl compounds and their therapeutic uses” (RAPT THERAPEUTICS, INC., priority 2018, dated 2021)
pIC50: −log10 of the molar value. Where a name gives a salt, the structure may show the parent alone. Read-outs that look alike come from different tables or passages of the source.

Molecular target: GCN2 (Homo sapiens, UniProt Q9P2K8)
Assay: GCN2 enzymatic endpoint assay: phosphorylation of GFP-eIF2α measured by TR-FRET (Lanthascreen)
Assay type: biochemical
Method in brief: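 Endpoint GCN2 reaction with low ATP (2 μM) and 80 nM GFP-eIF2α, room temperature, 90 minutes. Detection mix with EDTA and Tb-labelled antibody; 520 nm/495 nm emission ratio reported.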

[1] = tested as described in Example 77, compound and/or hydrochloride, dihydrochloride or trifluoroacetic acid salt, read-out: IC 50 Activity

Chain of GCN2 (Q9P2K8 whole entry): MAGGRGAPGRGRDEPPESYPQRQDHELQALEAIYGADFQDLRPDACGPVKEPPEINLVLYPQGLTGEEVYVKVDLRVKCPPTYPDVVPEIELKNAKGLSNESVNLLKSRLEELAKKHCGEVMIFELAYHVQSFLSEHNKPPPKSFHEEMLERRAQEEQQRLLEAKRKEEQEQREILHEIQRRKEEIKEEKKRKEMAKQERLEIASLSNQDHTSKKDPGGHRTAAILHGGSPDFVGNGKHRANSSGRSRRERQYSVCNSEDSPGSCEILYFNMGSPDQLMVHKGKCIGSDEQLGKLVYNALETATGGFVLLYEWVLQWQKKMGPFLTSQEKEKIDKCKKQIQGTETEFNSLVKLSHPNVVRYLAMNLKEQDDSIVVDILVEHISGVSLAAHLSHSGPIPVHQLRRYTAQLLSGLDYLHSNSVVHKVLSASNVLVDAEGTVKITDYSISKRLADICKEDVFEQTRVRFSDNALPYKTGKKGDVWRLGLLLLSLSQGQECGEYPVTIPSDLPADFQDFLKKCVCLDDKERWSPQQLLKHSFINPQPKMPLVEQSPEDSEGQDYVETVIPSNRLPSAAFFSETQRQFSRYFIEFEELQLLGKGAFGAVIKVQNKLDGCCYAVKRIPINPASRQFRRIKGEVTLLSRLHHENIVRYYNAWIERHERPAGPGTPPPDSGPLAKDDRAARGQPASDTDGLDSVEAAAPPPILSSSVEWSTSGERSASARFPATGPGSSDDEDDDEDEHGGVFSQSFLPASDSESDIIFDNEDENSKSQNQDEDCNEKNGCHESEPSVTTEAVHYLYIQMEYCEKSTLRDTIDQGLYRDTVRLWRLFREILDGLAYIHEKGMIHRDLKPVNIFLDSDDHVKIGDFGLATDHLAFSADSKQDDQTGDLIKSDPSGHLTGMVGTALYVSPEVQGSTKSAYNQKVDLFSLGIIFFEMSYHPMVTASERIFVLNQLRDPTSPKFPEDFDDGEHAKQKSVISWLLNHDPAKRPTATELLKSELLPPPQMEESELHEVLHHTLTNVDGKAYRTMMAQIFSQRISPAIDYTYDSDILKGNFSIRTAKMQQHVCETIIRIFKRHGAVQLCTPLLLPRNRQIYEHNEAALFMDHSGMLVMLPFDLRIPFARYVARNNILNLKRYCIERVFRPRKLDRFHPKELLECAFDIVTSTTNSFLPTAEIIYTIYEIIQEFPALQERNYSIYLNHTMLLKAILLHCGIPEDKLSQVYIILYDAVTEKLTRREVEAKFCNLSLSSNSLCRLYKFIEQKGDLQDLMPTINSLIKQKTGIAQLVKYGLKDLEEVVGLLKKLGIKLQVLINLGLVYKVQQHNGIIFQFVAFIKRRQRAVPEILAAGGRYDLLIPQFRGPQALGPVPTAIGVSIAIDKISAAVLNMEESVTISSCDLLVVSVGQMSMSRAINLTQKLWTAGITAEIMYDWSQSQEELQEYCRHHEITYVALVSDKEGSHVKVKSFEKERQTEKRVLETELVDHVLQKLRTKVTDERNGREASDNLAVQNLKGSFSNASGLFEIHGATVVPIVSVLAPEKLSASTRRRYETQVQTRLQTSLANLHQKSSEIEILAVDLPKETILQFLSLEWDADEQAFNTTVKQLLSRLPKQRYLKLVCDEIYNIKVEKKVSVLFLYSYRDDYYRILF

Row | SMILES | pIC50 [1] | pIC50 (GCN2 biochemical IC50, 4 nM GCN2, 2 μM ATP, 80 nM GFP-eIF2α, 90 min RT, read-out: GCN2 activity)
1 | CNC(=O)[C@]1(C)CC[C@@H](Nc2ncc3c(Br)nn(-c4cc(CCCO)c5c(c4)CCC(=O)N5C)c3n2)C1 | > 7.60 | 
2 | CNC(=O)[C@]1(C)CC[C@@H](Nc2ncc3c(Br)nn(-c4ccc5c(=O)n(C)cnc5c4)c3n2)C1 | 6.70 to 7.60 | 
3 | C[C@H](N)c1cc(Cl)cc(-n2nc(Br)c3cnc(N[C@@H]4CCC5(CC(=O)N(C)C5=O)C4)nc32)c1 (stereo partly shown) | 6.70 to 7.60 | 
4 | CNC(=O)C1(C)CC[C@@H](Nc2ncc3c(Br)nn(-c4ccc5cnccc5c4)c3n2)C1 (mixture of isomers) | 6.30 to 6.70 | 
5 | Cc1nnc(-c2ccc(-n3nc(Br)c4cnc(N[C@@H]5CCC6(CC(=O)N(C)C6=O)C5)nc43)cc2CCC#N)s1 (stereo partly drawn) [3-[5-[3-bromo-6-[[(8R)-2-methyl-1,3-dioxo-2-azaspiro[4.4]nonan-8-yl]amino]pyrazolo[3,4-d]pyrimidin-1-yl]-2-(5-methyl-1,3,4-thiadiazol-2-yl)phenyl]propanenitrile; 2,2,2-trifluoroacetic acid] | 6.70 to 7.60 | 
6 | CNC(=O)[C@]1(CCOC)CC[C@@H](Nc2ncc3c(Br)nn(-c4ccc(-c5nnc(C)s5)c(CCC#N)c4)c3n2)C1 [(1R,3R)-3-[[3-bromo-1-[3-(2-cyano-ethyl)-4-(5-methyl-1,3,4-thiadiazol-2-yl)phenyl]pyrazolo[3,4-d]pyrimidin-6-yl]amino]-1-(2-methoxyethyl)-N-methyl-cyclopentanecarboxamide; 2,2,2-trifluoroacetic acid] | 6.70 to 7.60 | 
7 | CNC(=O)[C@]1(C)CC[C@@H](Nc2ncc3c(Br)nn(-c4ccc5nc(N6CCCC6)ncc5c4)c3n2)C1 | 6.70 to 7.60 | 
8 | CNC(=O)[C@]1(CCC#N)CC[C@@H](Nc2ncc3c(Br)nn(-c4cc(F)c5ncccc5c4)c3n2)C1 [Example 43, (1S,3R)-3-((3-bromo-1-(8-fluoroquinolin-6-yl)-1H-pyrazolo[3,4-d]pyrimidin-6-yl)amino)-1-(2-cyanoethyl)-N-methylcyclopentane-1-carboxamide hydrochloride] |  | > 7.60
9 | CNC(=O)[C@]1(C)CC[C@@H](Nc2ncc3c(Br)nn(-c4ccc5ncn(CCN6C(=O)c7ccccc7C6=O)c(=O)c5c4)c3n2)C1 | 6.70 to 7.60 | 
10 | Cc1nnc(-c2ccc(-n3nc(Br)c4cnc(N[C@@H]5CC[C@@](C)(CO)C5)nc43)cc2CCC#N)s1 [3-[5-[3-bromo-6-[[(1R,3R)-3-(hydroxy-methyl)-3-methyl-cyclopentyl]amino]pyrazolo[3,4-d]pyrimidin-1-yl]-2-(5-methyl-1,3,4-thiadiazol-2-yl)phenyl] propanenitrile] | 6.70 to 7.60 | 
11 | O=C(O)[C@@H]1CCC[C@@H](Nc2ncc3c(Br)nn(-c4ccc5ncccc5c4)c3n2)C1 [(1R,3R)-3-((3-bromo-1-(quinolin-6-yl)-1H-pyrazolo[3,4-d]pyrimidin-6-yl)amino) cyclohexane-1-carboxylic acid] | 6.00 to 6.30 | 

More lines, now with the values ahead:

Row | pIC50 [1] | pIC50 (GCN2 biochemical IC50, 4 nM GCN2, 2 μM ATP, 80 nM GFP-eIF2α, 90 min RT, read-out: GCN2 activity) | SMILES
12 | > 7.60 |  | C[C@@]1(C(=O)N2CCNC(=O)C2)CC[C@@H](Nc2ncc3c(Br)nn(-c4cc(F)c5ncccc5c4)c3n2)C1 [4-[(1R,3R)-3-[[3-bromo-1-(8-fluoro-6-quinolyl)pyrazolo[3,4-d]pyrimidin-6-yl]amino]-1-methyl-cyclopentanecarbonyl] piperazin-2-one]
13 | 6.70 to 7.60 |  | C[C@H]1CN(C(=O)[C@@H]2CC[C@@H](Nc3ncc4c(Br)nn(-c5ccc6ncccc6c5)c4n3)C2)CCO1 [((1R,3R)-3-((3-bromo-1-(quinolin-6-yl)-1H-pyrazolo[3,4-d]pyrimidin-6-yl)amino)cyclo-pentyl)((S)-2-methylmorpholino)methanone]
14 | 6.70 to 7.60 |  | CNC(=O)[C@]1(C)CC[C@@H](Nc2ncc3c(Br)nn(-c4ccc5c(c4)OC(C)(C)C(=O)N5C)c3n2)C1 [(1R,3R)-3-[[3-bromo-1-(2,2,4-trimethyl-3-oxo-1,4-benzoxazin-7-yl)pyrazolo [3,4-d]pyrimidin-6-yl]amino]-N,1-dimethyl-cyclopentanecarboxamide]
15 | 6.70 to 7.60 |  | CNC(=O)[C@]1(C)CC[C@@H](Nc2ncc3c(Br)nn(-c4ccc(-n5nccc5C)cc4)c3n2)C1 [(1R,3R)-3-[[3-bromo-1-[4-(5-methyl-pyrazol-1-yl)phenyl]pyrazolo[3,4-d]pyrimidin-6-yl]amino]-N,1-dimethyl-cyclopentanecarboxamide]
16 | 6.70 to 7.60 |  | COC1CCN(C(=O)[C@]2(C)CC[C@@H](Nc3ncc4c(Br)nn(-c5cc(F)c6ncccc6c5)c4n3)C2)C1 (stereo partly drawn) [[(1R,3R)-3-[[3-bromo-1-(8-fluoro-6-quinolyl)pyrazolo[3,4-d]pyrimidin-6-yl]amino]-1-methyl-cyclopentyl]-(3-methoxypyrrolidin-1-yl)methanone]
17 | 6.70 to 7.60 |  | CNC(=O)[C@]1(C)CC[C@@H](Nc2ncc3c(Br)nn(-c4cc(Cl)cc(C5CNC(=O)CO5)c4)c3n2)C1 (stereo partly drawn) [(1R,3R)-3-[[3-bromo-1-[3-chloro-5-(5-oxomorpholin-2-yl)phenyl]pyrazolo [3,4-d]pyrimidin-6-yl]amino]-N,1-dimethyl-cyclopentanecarboxamide]
18 | 6.70 to 7.60 |  | N#Cc1cc(-n2nc(Br)c3cnc(N[C@@H]4CC[C@@H](C(=O)NC5CCC(C#N)C5)C4)nc32)cc2cccnc12 (stereo partly shown)
19 | 6.70 to 7.60 |  | CNC(=O)[C@]1(C)CC[C@@H](Nc2ncc3c(Br)nn(-c4ccc(-c5nccs5)cc4)c3n2)C1 [(1R,3R)-3-[[3-bromo-1-(4-thiazol-2-ylphenyl)pyrazolo[3,4-d]pyrimidin-6-yl]amino]-N,1-dimethyl-cyclopentane-carboxamide]
20 | 6.70 to 7.60 |  | CNC(=O)C1(C)CC[C@@H](Nc2ncc3c(Br)nn(-c4ccc5nc(OC)ccc5c4)c3n2)C1 (stereo partly drawn) [(3R)-3-((3-bromo-1-(2-methoxyquinolin-6-yl)-1H-pyrazolo[3,4-d]pyrimidin-6-yl)amino)-N,1-dimethylcyclopentane-1-carboxamide]
21 | 6.70 to 7.60 |  | CNC(=O)N1CC[C@@H](Nc2ncc3c(Br)nn(-c4ccc(-c5nnc(C)s5)cc4)c3n2)C1 [(3R)-3-[[3-bromo-1-[4-(5-methyl-1,3,4-thiadiazol-2-yl)phenyl]pyrazolo [3,4-d]pyrimidin-6-yl]amino]-N-methyl-pyrrolidine-1-carboxamide]
22 | 6.70 to 7.60 |  | N#Cc1cc(-n2nc(Br)c3cnc(N[C@@H]4CC[C@@H](C(=O)N5CCC5)C4)nc32)cc2cccnc12 [6-(6-(((1R,3R)-3-(azetidine-1-carbonyl)cyclopentyl)amino)-3-bromo-1H-pyrazolo [3,4-d]pyrimidin-1-yl)quinoline-8-carbonitrile]
23 | 6.70 to 7.60 |  | Cc1nnc(-c2ccc(-n3nc(Br)c4cnc(N[C@@H]5CC[C@@](C)(C(=O)O)C5)nc43)cc2CCN)s1 [(1R,3R)-3-[[1-[3-(2-aminoethyl)-4-(5-methyl-1,3,4-thiadiazol-2-yl)phenyl]-3-bromo-pyrazolo[3,4-d]pyrimidin-6-yl]amino]-1-methyl-cyclopentanecarboxylic acid]
24 | 6.70 to 7.60 |  | CNC(=O)[C@]1(C)CC[C@@H](Nc2ncc3c(Br)nn(-c4ccc5c(c4)C(C)(C)CO5)c3n2)C1 [(1R,3R)-3-[[3-bromo-1-(3,3-dimethyl-2H-benzofuran-5-yl)pyrazolo[3,4-d]pyrimidin-6-yl]amino]-N,1-dimethyl-cyclopentane-carboxamide]
25 | 6.70 to 7.60 |  | CNC(=O)[C@]1(C)CC[C@@H](Nc2ncc3c(Br)nn(-c4cc(C#N)cc(OCCO)c4)c3n2)C1 [(1R,3R)-3-[[3-bromo-1-[3-cyano-5-(2-hydroxyethoxy)phenyl]pyrazolo[3,4-d]pyrimidin-6-yl]amino]-N,1-dimethyl-cyclopentanecarboxamide]
